The values that follow are results of earlier work, collected in patent US20250231185A1, “Coronavirus T Cell Epitopes, Megapools and Uses Thereof” (La Jolla Institute for Immunology, priority 2021, published 2025).

The test system of the data set is CD8+ T cells. To be noted: cited from earlier work; for Restriction: T cell subset (CD4 or CD8) recognizing the SARS-CoV-2-derived epitope; for Dominant: SARS-CoV-2-derived CD8 epitopes, dominant = recognized by 3 or more donors/different studies.

Turning to 500 (MKDLSPRWY) [compound 500], the Restriction entry is listed as “CD8”.

As to 501 (LSPRWYFYYL) [compound 501], the Dominant entry was “Yes (more dominant epitopes are defined by being recognized by 3 or more donors/different studies)” and the Restriction result is “CD8”.

Regarding 502 (SPRWYFYYL) [compound 502], the Dominant result was “Yes (more dominant epitopes are defined by being recognized by 3 or more donors/different studies)” and the Restriction result is listed as “CD8”.

Turning to 503 (YLGTGPEAGL) [compound 503], the Restriction entry is “CD8”.

Consider 504 (GTGPEAGLPY) [compound 504], for which the Dominant result was “Yes (more dominant epitopes are defined by being recognized by 3 or more donors/different studies)” and the Restriction result was “CD8”.

As to 505 (AGLPYGANK) [compound 505], the Restriction entry was “CD8”.

Consider 506 (LPYGANKDGI) [compound 506], for which the Restriction result was “CD8”.

For 507 (YGANKDGIIW) [compound 507], the Restriction result was “CD8”.

As for 508 (IIWVATEGA) [compound 508], the Restriction result was “CD8”.

As to 509 (ATEGALNTPK) [compound 509], the Dominant entry is given as “Yes (more dominant epitopes are defined by being recognized by 3 or more donors/different studies)” and the Restriction entry is “CD8”.

On to 510 (ATEGALNTPKDHI) [compound 510], for which the Dominant result is “Yes (more dominant epitopes are defined by being recognized by 3 or more donors/different studies)” and the Restriction entry is “CD8”.

On to 511 (GTRNPANNA) [compound 511], for which the Restriction entry is “CD8”.

On to 513 (NPANNAAIVL) [compound 513], for which the Dominant result is reported as “Yes (more dominant epitopes are defined by being recognized by 3 or more donors/different studies)” and the Restriction entry is given as “CD8”.

On to 514 (VLQLPQGTTL) [compound 514], for which the Dominant entry is reported as “Yes (more dominant epitopes are defined by being recognized by 3 or more donors/different studies)” and the Restriction result is reported as “CD8”.

Take 515 (AEGSRGGSQA) [compound 515]: the Restriction entry is reported as “CD8”.

As to 516 (SQASSRSSSR) [compound 516], the Restriction result is “CD8”.

As for 517 (SSRGTSPAR) [compound 517], the Restriction entry was “CD8”.

On to 518 (LALLLLDRL) [compound 518], for which the Dominant entry is “Yes (more dominant epitopes are defined by being recognized by 3 or more donors/different studies)” and the Restriction entry is “CD8”.

Consider 519 (LLLLDRLNQL) [compound 519], for which the Dominant entry is “Yes (more dominant epitopes are defined by being recognized by 3 or more donors/different studies)” and the Restriction entry was “CD8”.

520 (LLLDRLNQL) [compound 520]: the Dominant result is given as “Yes (more dominant epitopes are defined by being recognized by 3 or more donors/different studies)” and the Restriction result was “CD8”.

In the case of 521 (QQQQGQTVTK) [compound 521], the Dominant result is “Yes (more dominant epitopes are defined by being recognized by 3 or more donors/different studies)” and the Restriction entry is recorded as “CD8”.

For the substance 522 (KSAAEASKK) [compound 522], the Restriction entry was “CD8”.

For 523 (KPRQKRTAT) [compound 523], the Dominant result is recorded as “Yes (more dominant epitopes are defined by being recognized by 3 or more donors/different studies)” and the Restriction entry is “CD8”.

For the substance 524 (RTATKAYNV) [compound 524], the Restriction result was “CD8”.

526 (RRGPEQTQGNF) [compound 526]: the Restriction entry was “CD8”.

Turning to 528 (QELIRQGTDYKHW) [compound 528], the Dominant result was “Yes (more dominant epitopes are defined by being recognized by 3 or more donors/different studies)” and the Restriction entry was “CD8”.

Regarding 529 (ELIRQGTDY) [compound 529], the Restriction entry is “CD8”.

With 530 (DYKHWPQIAQF) [compound 530], the Restriction result is “CD8”.

Consider 531 (HWPQIAQF) [compound 531], for which the Restriction result was “CD8”.

With 533 (AQFAPSASAF) [compound 533], the Dominant result is “Yes (more dominant epitopes are defined by being recognized by 3 or more donors/different studies)” and the Restriction result is “CD8”.

On to 534 (QFAPSASAFF) [compound 534], for which the Restriction entry is listed as “CD8”.

For the substance 535 (FAPSASAFF) [compound 535], the Restriction entry is on record as “CD8”.

As for 536 (APSASAFFGM) [compound 536], the Restriction result is “CD8”.

Consider 537 (SASAFFGMSR) [compound 537], for which the Restriction result is reported as “CD8”.

Take 538 (ASAFFGMSR) [compound 538]: the Dominant result is recorded as “Yes (more dominant epitopes are defined by being recognized by 3 or more donors/different studies)” and the Restriction entry is recorded as “CD8”.

As for 539 (GMSRIGMEV) [compound 539], the Dominant entry is “Yes (more dominant epitopes are defined by being recognized by 3 or more donors/different studies)” and the Restriction entry is on record as “CD8”.

On to 540 (GMEVTPSGTWLTY) [compound 540], for which the Dominant entry was “Yes (more dominant epitopes are defined by being recognized by 3 or more donors/different studies)” and the Restriction result is “CD8”.

Consider 541 (MEVTPSGTW) [compound 541], for which the Dominant entry is reported as “Yes (more dominant epitopes are defined by being recognized by 3 or more donors/different studies)” and the Restriction result is recorded as “CD8”.

Turning to 542 (MEVTPSGTWL) [compound 542], the Dominant entry is listed as “Yes (more dominant epitopes are defined by being recognized by 3 or more donors/different studies)” and the Restriction result was “CD8”.

Consider 543 (EVTPSGTWLTY) [compound 543], for which the Restriction entry is given as “CD8”.

Consider 544 (VTPSGTWLTY) [compound 544], for which the Restriction result is “CD8”.

Consider 545 (TPSGTWLTY) [compound 545], for which the Restriction entry is listed as “CD8”.

On to 546 (KLDDKDPNF) [compound 546], for which the Restriction result is recorded as “CD8”.

On to 547 (ILLNKHIDA) [compound 547], for which the Dominant entry is listed as “Yes (more dominant epitopes are defined by being recognized by 3 or more donors/different studies)” and the Restriction result is given as “CD8”.

As to 548 (LLNKHIDAY) [compound 548], the Restriction result is reported as “CD8”.

Take 549 (AYKTFPPTEPK) [compound 549]: the Dominant result was “Yes (more dominant epitopes are defined by being recognized by 3 or more donors/different studies)” and the Restriction result was “CD8”.

For 550 (YKTFPPTEPK) [compound 550], the Restriction entry is listed as “CD8”.

On to 553 (KTFPPTEPKKDKKK) [compound 553], for which the Restriction result is given as “CD8”.

Take 554 (KKQQTVTLL) [compound 554]: the Restriction entry is reported as “CD8”.

With 555 (LPAADLDDF) [compound 555], the Dominant result is recorded as “Yes (more dominant epitopes are defined by being recognized by 3 or more donors/different studies)” and the Restriction entry was “CD8”.

On to 556 (AADLDDFSKQL) [compound 556], for which the Restriction result is “CD8”.

For 557 (FSKQLQQSM) [compound 557], the Dominant entry was “Yes (more dominant epitopes are defined by being recognized by 3 or more donors/different studies)” and the Restriction entry was “CD8”.

Turning to 558 (VLSEARQHL) [compound 558], the Dominant result is reported as “Yes (more dominant epitopes are defined by being recognized by 3 or more donors/different studies)” and the Restriction result is “CD8”.

559 (HLKDGTCGL) [compound 559]: the Restriction entry was “CD8”.

For the substance 560 (APHGHVMVEL) [compound 560], the Restriction result is reported as “CD8”.

As for 561 (VMVELVAEL) [compound 561], the Restriction result is on record as “CD8”.

Turning to 562 (VPHVGEIPV) [compound 562], the Restriction result is recorded as “CD8”.

In the case of 563 (HVGEIPVAY) [compound 563], the Restriction entry is given as “CD8”.

For the substance 564 (IPVAYRKVLL) [compound 564], the Restriction entry was “CD8”.

As to 565 (TFNGECPNF) [compound 565], the Restriction result is reported as “CD8”.

On to 566 (KTIQPRVEK) [compound 566], for which the Dominant result is recorded as “Yes (more dominant epitopes are defined by being recognized by 3 or more donors/different studies)” and the Restriction entry is recorded as “CD8”.

Consider 567 (GFMGRIRSV) [compound 567], for which the Restriction result is “CD8”.

Take 569 (EEIAIILASF) [compound 569]: the Restriction entry was “CD8”.

Turning to 570 (AIILASFSAST) [compound 570], the Restriction entry is “CD8”.

For the substance 571 (ILSPLYAFA) [compound 571], the Restriction result is “CD8”.

Turning to 572 (VRSIFSRTL) [compound 572], the Restriction entry is given as “CD8”.

For 573 (ITILDGISQY) [compound 573], the Restriction result is “CD8”.

As for 574 (RLIDAMMFT) [compound 574], the Restriction result is “CD8”.

As to 576 (TVYEKLKPV) [compound 576], the Restriction entry is listed as “CD8”.

With 577 (YEKLKPVL) [compound 577], the Restriction entry is “CD8”.

Turning to 578 (EIKESVQTF) [compound 578], the Restriction entry is listed as “CD8”.

Regarding 579 (KLVNKFLAL) [compound 579], the Dominant entry is “Yes (more dominant epitopes are defined by being recognized by 3 or more donors/different studies)” and the Restriction result was “CD8”.

Consider 581 (APKEIIFL) [compound 581], for which the Restriction entry is listed as “CD8”.

In the case of 582 (GETLPTEVL) [compound 582], the Restriction result is given as “CD8”.

As for 583 (VTNNTFTLK) [compound 583], the Dominant result was “Yes (more dominant epitopes are defined by being recognized by 3 or more donors/different studies)” and the Restriction entry was “CD8”.

As to 584 (FGDDTVIEV) [compound 584], the Dominant entry is reported as “Yes (more dominant epitopes are defined by being recognized by 3 or more donors/different studies)” and the Restriction result is “CD8”.
